Laboratory results: ChEMBL document CHEMBL1201862, “PubChem BioAssay data set” (2004)
The source made the active and inactive calls.

Legend:
[1] = biological target: ATP-dependent molecular chaperone HSP82 (Candida albicans (strain WO-1) (Yeast), UniProt C4YTQ8); assay: loss of DOC-induced GRE-beta-galactosidase reporter signal, dose response, Hsp90 inhibitor project, S. cerevisiae, luminescence (AID 2400); type: functional, cell-based;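 also: beta-galactosidase luminescence from glucocorticoid response element reporter as proxy for Hsp90 function; inhibitor potency where signal loss means Hsp90 inhibition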
Sequence of ATP-dependent molecular chaperone HSP82 (C4YTQ8 whole entry): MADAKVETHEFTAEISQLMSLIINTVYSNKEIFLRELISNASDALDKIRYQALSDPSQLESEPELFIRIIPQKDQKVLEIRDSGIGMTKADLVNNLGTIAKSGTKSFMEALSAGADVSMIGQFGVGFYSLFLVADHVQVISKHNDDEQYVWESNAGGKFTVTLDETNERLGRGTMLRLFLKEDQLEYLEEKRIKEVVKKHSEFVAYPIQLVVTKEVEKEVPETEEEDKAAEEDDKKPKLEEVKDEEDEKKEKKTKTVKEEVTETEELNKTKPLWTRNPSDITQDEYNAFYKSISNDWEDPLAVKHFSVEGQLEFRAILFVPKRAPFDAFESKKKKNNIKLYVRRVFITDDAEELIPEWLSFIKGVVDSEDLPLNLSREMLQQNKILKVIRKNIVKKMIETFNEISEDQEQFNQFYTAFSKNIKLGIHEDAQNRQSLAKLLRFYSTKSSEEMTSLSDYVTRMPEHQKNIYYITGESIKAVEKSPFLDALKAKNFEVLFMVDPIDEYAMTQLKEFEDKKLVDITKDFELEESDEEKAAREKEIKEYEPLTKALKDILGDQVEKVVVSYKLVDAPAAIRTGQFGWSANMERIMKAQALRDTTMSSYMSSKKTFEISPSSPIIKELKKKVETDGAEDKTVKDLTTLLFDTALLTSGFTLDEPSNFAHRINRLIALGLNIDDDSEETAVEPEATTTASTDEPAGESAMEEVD

Albumin = Albumin (Bos taurus, UniProt P02769); assay: Counterscreen for inhibitors of T-cell receptor (TCR)-CD3 interaction: Fluorescence-based biochemical high throughput dose response assay to identify inhibitors of T-cell receptor (TCR)-CD3 interaction using a TAMRA-labeled BSA probe.; type: functional
Sequence of Albumin (P02769 whole entry): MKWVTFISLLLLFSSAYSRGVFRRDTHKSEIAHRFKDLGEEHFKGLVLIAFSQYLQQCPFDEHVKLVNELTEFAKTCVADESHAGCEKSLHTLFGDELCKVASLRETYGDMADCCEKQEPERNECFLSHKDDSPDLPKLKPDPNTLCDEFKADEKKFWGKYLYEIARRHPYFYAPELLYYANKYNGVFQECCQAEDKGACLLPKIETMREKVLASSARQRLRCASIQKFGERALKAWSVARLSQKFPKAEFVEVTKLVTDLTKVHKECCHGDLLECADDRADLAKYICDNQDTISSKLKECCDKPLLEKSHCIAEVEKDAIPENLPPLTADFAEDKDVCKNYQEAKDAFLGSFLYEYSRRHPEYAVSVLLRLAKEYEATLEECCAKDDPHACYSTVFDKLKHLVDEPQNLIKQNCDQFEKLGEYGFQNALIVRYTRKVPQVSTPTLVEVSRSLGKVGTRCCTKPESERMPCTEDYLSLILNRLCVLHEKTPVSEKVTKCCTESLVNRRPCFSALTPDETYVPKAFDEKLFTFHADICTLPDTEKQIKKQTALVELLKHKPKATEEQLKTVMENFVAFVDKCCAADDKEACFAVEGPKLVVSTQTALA

[2] = test system: Streptococcus sp. 'group A'; assay: growth inhibition of control SK(-) GAS strain, dose response, counter-screen for streptokinase expression inhibitor project, luminescence, kanamycin, BacTiterGlo, confirmation (AID 1900); type: functional, organism-based
[3] = C. albicans growth with fluconazole, confirmation, fluorescence, retest (AID 2467); type: functional, cell-based
[4] = NIH-3T3 fibroblast cytotoxicity, dose response, cytotoxicity control, cell-based, fluorescence, Alamar Blue, secondary assay (AID 2327); type: functional;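 also: NIH-3T3 mouse fibroblasts cultured with fluconazole at 8 µg/mL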
Streptococcus = assay: Group A Streptococcus viability loss, dose response, counter-screen for streptokinase expression inhibitor project, luminescence, BacTiterGlo (AID 1915); type: functional, organism-based;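 also: potency for reduction of bacterial viability or growth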
[5] = biological target: Serine/threonine-protein phosphatase (Candida dubliniensis (strain CD36 / CBS 7987 / NCPF 3949 / NRRLY-17841) (Yeast), UniProt B9W6M3); assay: calcineurin pathway inhibitors in yeast reporter, dose response, S. cerevisiae, CDRE-lacZ, luminescence, secondary (AID 2388); type: functional, cell-based;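 also: yeast reporter cells carrying a calcineurin-responsive lacZ construct stimulated with calcium chloride; luminescent beta-galactosidase reporter signal in whole cells rather than isolated phosphatase activity; potency for inhibition where a drop in reporter signal means calcineurin blockade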
Sequence of Serine/threonine-protein phosphatase (B9W6M3 whole entry): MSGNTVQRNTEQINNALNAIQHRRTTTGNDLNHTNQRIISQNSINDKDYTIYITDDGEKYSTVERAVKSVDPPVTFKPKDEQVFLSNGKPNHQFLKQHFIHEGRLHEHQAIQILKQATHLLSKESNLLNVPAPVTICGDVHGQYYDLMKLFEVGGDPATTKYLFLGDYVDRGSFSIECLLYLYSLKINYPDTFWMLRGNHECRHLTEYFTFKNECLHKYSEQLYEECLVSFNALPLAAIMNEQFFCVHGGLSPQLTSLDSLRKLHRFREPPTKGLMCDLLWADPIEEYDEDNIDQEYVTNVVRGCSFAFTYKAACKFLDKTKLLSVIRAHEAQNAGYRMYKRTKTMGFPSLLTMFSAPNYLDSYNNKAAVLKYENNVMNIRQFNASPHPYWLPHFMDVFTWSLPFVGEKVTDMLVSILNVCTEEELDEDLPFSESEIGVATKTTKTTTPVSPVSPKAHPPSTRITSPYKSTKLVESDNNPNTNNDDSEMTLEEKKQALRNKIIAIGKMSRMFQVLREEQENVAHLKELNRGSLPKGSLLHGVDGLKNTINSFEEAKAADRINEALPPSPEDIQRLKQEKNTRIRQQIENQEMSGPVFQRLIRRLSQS

[6] = biological target: Glucose-6-phosphate 1-dehydrogenase (Homo sapiens, UniProt P11413); assay: human G6PD enzyme inhibitors, dose response, selectivity assay for P. falciparum G6PD inhibitor project, biochemical, fluorescence (AID 504792); type: functional
Sequence of Glucose-6-phosphate 1-dehydrogenase (P11413 whole entry, the tested form may be a part): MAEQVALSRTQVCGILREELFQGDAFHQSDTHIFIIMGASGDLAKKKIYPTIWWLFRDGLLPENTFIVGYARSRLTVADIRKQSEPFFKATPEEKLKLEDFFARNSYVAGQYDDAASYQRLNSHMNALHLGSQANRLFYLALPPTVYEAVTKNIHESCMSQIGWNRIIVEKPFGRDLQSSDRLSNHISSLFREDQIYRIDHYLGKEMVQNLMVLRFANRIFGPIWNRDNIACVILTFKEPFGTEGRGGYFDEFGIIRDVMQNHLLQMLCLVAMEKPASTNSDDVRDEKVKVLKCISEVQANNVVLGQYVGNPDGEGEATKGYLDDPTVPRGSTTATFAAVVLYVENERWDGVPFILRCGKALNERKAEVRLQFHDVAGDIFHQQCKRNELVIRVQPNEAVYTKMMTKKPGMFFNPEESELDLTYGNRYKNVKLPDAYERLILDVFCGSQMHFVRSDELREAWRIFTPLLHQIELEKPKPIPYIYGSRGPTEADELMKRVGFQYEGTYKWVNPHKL

CHO = assay: cytotoxicity in TLR9-MyD88 CHO cells, dose response, cytotoxicity control for TLR9-MyD88 binding inhibitor project, cell-based, luminescence (AID 588339); type: functional, hamster; settings: Cricetulus griseus;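 also: CHO cells stably coexpressing TLR9 and MyD88 fusions from primary screen; compound exposure lasted 48 hours before viability readout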
[7] = biological target: Latent membrane protein 1 (Human herpesvirus 4 (strain B95-8), UniProt P03230); assay: TES1-eGFP NF-kB reporter inhibition versus Tet-On dsRED, dose response, selectivity assay for LMP1 NF-kB inhibitor project, imaging, HEK293T, dual-color eGFP/dsRED, cherry-picks (AID 588398); type: functional, cell-based
Sequence of Latent membrane protein 1 (P03230 whole entry): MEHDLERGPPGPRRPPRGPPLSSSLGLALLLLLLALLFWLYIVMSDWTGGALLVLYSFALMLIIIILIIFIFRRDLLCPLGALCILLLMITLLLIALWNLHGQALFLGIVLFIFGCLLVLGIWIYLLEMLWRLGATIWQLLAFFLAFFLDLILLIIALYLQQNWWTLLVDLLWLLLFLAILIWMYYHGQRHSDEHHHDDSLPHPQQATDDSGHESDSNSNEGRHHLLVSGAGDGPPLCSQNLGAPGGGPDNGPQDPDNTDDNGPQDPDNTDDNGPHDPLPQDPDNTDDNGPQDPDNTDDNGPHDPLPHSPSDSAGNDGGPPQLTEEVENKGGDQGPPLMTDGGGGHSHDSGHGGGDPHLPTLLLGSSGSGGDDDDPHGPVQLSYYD

Vero [8] = assay: cells; type: functional; settings: Chlorocebus sabaeus
HEK293 = assay: inhibitors of LMP1-driven NF-kB reporter, dose response, cell-based, HEK293, luciferase, cherry-pick (AID 588343); type: functional; settings: Homo sapiens
[9] = biological target: Heat shock protein HSP 90-alpha (Homo sapiens, UniProt P07900); type: functional, organism-based
[10] = biological target: T1, Microphthalmia-associated transcription factor (Homo sapiens, UniProt O75030); assay: TRPM1 promoter luciferase signal decrease, dose response, MITF inhibitor project, cell-based, SK-MEL-5, cherry-picked, set 3 (AID 493073); type: functional
T1 sequence (O75030 whole entry): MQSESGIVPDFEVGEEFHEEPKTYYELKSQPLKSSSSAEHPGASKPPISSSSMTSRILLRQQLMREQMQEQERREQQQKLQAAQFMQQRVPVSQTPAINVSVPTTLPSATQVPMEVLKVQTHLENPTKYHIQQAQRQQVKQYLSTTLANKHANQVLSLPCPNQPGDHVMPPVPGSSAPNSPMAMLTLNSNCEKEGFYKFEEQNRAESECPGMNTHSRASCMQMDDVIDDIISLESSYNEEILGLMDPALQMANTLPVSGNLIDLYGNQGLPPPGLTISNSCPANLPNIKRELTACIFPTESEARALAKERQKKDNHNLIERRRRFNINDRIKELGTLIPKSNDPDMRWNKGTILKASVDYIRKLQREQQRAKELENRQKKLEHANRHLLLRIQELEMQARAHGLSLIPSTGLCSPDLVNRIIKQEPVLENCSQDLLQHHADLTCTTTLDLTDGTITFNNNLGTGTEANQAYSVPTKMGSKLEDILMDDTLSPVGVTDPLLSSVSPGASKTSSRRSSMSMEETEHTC

Nonstructural protein 1 = Nonstructural protein 1 (Influenza A virus, UniProt Q194T2); type: functional, Influenza A virus (A/California/07/2009(H1N1))
Sequence of Nonstructural protein 1 (Q194T2 whole entry): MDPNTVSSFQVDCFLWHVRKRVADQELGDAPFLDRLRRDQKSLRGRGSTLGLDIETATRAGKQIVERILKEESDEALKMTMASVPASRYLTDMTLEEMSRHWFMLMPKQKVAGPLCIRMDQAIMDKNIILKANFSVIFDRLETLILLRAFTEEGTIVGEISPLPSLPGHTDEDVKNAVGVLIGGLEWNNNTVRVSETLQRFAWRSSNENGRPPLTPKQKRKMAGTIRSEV

A-375 [11] = assay: A375 melanoma cell viability reduction, dose response, counter-screen for MITF modulator project, cherry-pick samples, set 2 (AID 540335); type: functional, cell-based; settings: Homo sapiens
Vero [12] = assay: cells; type: functional, cell-based; settings: Chlorocebus sabaeus
Mu-type opioid receptor = Mu-type opioid receptor (Homo sapiens, UniProt P35372); assay: (§1) Counterscreen for agonists of heterodimerization of the mu 1 (OPRM1) and delta 1 (OPRD1) opioid receptors: Luminescence-based cell-based high throughput dose response assay to identify agonists of OPRM1 homodimerization.; type: functional
Sequence of Mu-type opioid receptor (P35372 whole entry): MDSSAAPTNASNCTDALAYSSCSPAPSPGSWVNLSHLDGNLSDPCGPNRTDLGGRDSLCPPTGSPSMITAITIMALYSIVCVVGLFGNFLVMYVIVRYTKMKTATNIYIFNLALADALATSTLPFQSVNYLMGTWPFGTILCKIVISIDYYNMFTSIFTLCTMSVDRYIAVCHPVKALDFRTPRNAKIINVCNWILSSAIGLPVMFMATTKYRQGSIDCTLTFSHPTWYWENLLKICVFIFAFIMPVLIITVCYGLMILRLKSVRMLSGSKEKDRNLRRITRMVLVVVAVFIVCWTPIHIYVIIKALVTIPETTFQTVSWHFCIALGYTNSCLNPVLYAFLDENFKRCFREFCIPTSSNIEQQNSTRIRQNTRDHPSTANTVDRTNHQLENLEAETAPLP

[13] = biological target: 5-hydroxytryptamine receptor 5A (Homo sapiens, UniProt P47898); assay: Counterscreen for agonists of OPRM1-OPRD1 heterodimerization: luminescence-based cell-based high throughput dose response assay to identify agonists of 5-hydroxytryptamine (serotonin) 5A receptor (HTR5A). [Related pubchem assays (depositor defined):AID504326, AID504355, AID504692, AID504904, AID504905]; type: functional
Sequence of 5-hydroxytryptamine receptor 5A (P47898 whole entry): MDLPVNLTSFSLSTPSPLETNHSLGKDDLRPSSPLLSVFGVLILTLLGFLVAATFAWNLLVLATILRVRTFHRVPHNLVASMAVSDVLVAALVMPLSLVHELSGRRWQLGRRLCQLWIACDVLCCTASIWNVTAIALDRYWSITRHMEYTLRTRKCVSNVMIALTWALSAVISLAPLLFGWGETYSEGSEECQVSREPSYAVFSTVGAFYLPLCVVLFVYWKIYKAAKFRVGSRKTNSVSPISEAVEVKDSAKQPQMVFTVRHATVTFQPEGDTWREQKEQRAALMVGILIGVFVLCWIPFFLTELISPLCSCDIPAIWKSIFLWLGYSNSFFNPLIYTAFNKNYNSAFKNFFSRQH

[14] = biological target: Delta-type opioid receptor (Homo sapiens, UniProt P41143); assay: as §1, with “of OPRD1” for “of OPRM1”, “homodimerization. [Related pubchem assays (depositor defined):AID504326, AID504355, AID504692, AID504904, AID504905]” for “homodimerization.”; type: functional
[15] = biological target: Cyclin-dependent kinase 5/CDK5 activator 1 (Homo sapiens, UniProt Q00535); assay: CDK5/p35 kinase inhibitors, dose response, biochemical, cherry-picked samples, set 2 (AID 504545)
Sequence of Cyclin-dependent kinase 5/CDK5 activator 1 (Q00535 whole entry): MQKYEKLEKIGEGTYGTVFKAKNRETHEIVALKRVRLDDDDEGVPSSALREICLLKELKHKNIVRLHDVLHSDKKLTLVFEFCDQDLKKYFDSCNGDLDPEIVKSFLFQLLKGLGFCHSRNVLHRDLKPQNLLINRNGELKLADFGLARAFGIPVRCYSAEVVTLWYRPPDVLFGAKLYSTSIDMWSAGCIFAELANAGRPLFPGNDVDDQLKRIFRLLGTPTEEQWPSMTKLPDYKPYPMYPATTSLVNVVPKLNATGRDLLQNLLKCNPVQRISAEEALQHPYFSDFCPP
Sequence of Cyclin-dependent kinase 5/CDK5 activator 1 (Q15078 whole entry, further chain): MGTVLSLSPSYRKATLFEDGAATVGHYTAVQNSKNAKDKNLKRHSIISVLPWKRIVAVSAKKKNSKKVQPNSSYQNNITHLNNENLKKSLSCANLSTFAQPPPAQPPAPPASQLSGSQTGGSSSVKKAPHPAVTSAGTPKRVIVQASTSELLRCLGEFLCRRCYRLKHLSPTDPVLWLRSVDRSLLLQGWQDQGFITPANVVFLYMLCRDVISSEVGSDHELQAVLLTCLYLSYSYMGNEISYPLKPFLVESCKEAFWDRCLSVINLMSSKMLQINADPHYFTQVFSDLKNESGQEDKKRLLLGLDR

[16] = reduction of endogenous Shn3 mRNA, dose response, qPCR, Clone20 cells, cherry-pick (AID 743415); type: functional, cell-based
Jurkat = assay: antigen receptor-induced NF-kB inhibitors, dose response, Jurkat, luciferase reporter, luminescence, B- and T-cell (AID 489004); type: functional, cell-based; settings: Homo sapiens;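 also: NF-kB luciferase reporter Jurkat cells stimulated with PMA plus ionomycin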
[17] = cytotoxicity in HEK-293T NF-kB-Luc cells, dose response, cytotoxicity control for B/T-cell NF-kB inhibitor project, cell-based, uHTS hits (AID 489019); type: functional;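 also: IC50 reflects cytotoxicity as loss of cell viability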
[18] = CEM21 lymphoblast cell cytotoxicity, dose response, cytotoxicity control for viral fusion inhibitor project, CellTiter-Glo luminescence, cherry-picked (AID 652042); type: functional, cell-based;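 also: potency for signal decrease meaning cytotoxicity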
[19] = biological target: T2, Heat shock factor protein 1 (Mus musculus, UniProt P38532); assay: inhibition of MG132-induced HSE-luciferase signal, confirmation, cell-based, NIH3T3, luminescence, dose retest (AID 2382); type: functional;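 also: NIH3T3 fibroblasts with HSF1-driven luciferase reporter stressed by proteasome inhibitor MG132; luminescence from HSF1-driven luciferase expression after 8 hours of MG132 stress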
T2 sequence (P38532 whole entry): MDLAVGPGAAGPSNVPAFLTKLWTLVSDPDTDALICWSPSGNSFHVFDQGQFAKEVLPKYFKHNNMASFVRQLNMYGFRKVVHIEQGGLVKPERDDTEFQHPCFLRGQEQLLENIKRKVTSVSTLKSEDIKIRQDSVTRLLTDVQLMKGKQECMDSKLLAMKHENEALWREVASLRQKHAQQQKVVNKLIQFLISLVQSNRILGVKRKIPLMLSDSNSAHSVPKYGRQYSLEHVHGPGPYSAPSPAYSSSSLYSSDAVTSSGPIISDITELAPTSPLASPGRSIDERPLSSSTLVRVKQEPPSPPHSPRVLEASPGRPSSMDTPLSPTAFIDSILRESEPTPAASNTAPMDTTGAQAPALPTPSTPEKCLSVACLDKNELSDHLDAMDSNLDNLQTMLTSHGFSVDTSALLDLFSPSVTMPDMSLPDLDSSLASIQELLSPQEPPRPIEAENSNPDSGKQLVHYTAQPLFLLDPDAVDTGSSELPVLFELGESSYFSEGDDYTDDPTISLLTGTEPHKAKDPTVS

[20] = inhibitors of HIV Env-driven cell fusion, dose response, cherry-pick (AID 652057); type: functional, cell-based
[21] = ZM109 Env clade C HIV-1 fusion inhibitors, dose response, HeLa effector, CEM target cells, luciferase, cherry-pick (AID 652058); type: functional, cell-based
[22] = Luminescence Cell-Based Dose Response HTS to Identify Inhibitors of 5'UTR Stem-Loop Driven Prion Protein mRNA Translation in H4 Neuroglioblastoma Cells. [Related pubchem assays: 1827 (Project Summary), 1813 (Primary HTS)]; type: functional
Paired box protein Pax-8 = Paired box protein Pax-8 (Homo sapiens, UniProt Q06710); assay: inhibitors of PAX8-driven TPO luciferase reporter, dose response, RMG-I cells, cherry-pick (AID 687027); type: functional, cell-based;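 also: luciferase reporter driven by Pax8 target thyroperoxidase promoter measured by SteadyGlo luminescence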
Sequence of Paired box protein Pax-8 (Q06710 whole entry): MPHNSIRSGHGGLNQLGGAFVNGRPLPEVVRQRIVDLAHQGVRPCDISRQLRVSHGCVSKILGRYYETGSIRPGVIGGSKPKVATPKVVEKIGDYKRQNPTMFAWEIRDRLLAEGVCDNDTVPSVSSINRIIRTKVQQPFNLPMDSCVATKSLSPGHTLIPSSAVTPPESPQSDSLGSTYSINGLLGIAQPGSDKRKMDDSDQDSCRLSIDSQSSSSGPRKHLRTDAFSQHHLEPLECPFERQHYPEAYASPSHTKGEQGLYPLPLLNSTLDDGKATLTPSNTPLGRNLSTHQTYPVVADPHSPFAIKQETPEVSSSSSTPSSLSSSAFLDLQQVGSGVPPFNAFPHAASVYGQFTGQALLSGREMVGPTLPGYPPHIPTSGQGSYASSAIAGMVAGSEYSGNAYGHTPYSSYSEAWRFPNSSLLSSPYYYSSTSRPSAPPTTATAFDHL

[23] = inhibitors of SNCA 5'UTR-driven reporter translation, confirmation, H4 neuroglioma cells, luminescence (AID 1988); type: functional, cell-based
[24] = inhibitors of firefly luciferase expression or activity, dose response, H4 neuroglioma cells, luminescence (AID 1990); type: functional, cell-based
[25] = reduction of Shn3 3'UTR firefly luciferase signal, dose response, Schnurri-3 inhibitor project, cell-based, Clone20 osteoblasts, cherry-pick, set 2 (AID 720490); type: functional;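 also: actives lower the luminescence signal as inhibitors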
[26] = inhibitors of clade B AD8 Env fusion, dose response, cell-based, cherry-pick (AID 652062); type: functional;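 also: luciferase signal from cell-cell fusion driven by HIV-1 clade B AD8 Env; potency is for inhibitors of fusion seen as a drop in luminescence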
[27] = Shn3 3'UTR reporter inhibitors, dose response, cell-based, Clone20 osteoblasts, firefly luciferase, cherry-picked (AID 624132); type: functional;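 also: firefly luciferase luminescence from reporter carrying the Shn3 3'UTR in osteoblasts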
[28] = off-target signal loss in HeLa-CEM21 co-culture – HeLa F-luc CTL cells, cherry-picked, counter-screen for HIV-1 Env fusion inhibitor project, dose response (AID 652040); type: functional, cell-based;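 also: potency for signal decrease marking cytotoxic or nonspecific inhibition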
A-375 [29] = assay: MITF: Counter assay: A375 proliferation Measured in Cell-Based System Using Plate Reader - 2084-03_Inhibitor_Dose_DryPowder_Activity. [Related pubchem assays (depositor defined):AID488944]; type: functional; settings: Homo sapiens

Cc1cc(C(=O)N/N=C/c2cc(Cl)cc([N+](=O)[O-])c2O)c2ccccc2n1
inactive: IC50 (Albumin) > 94.1 µM | EC50 [5] > 180 µM
active: EC50 [1] 17.5 µM | EC50 [2] 1.03 µM | EC50 [3] 14.7 µM | EC50 [4] 34.3 µM | EC50 (Streptococcus) 1.51 µM

CC(=NNC(=S)N1CCN(c2ccccn2)CC1)c1nccs1
active: IC50 (CHO) 0.11 µM | AC50 [7] 5.18 µM | CC50 (Vero [8]) 8.98 µM | AC50 (HEK293) 4.44 µM | AC50 [9] 2.18 µM | AC50 [10] 0.681 µM | IC50 (Nonstructural protein 1) 3.38 µM | AC50 (A-375 [11]) 34.7 µM | IC50 (Vero [12]) > 25 µM
inactive: IC50 [6] > 80 µM

CCOC(=O)C1(c2ccccc2)CCN(CCC(=O)Nc2cccc(Br)c2)CC1
inactive: EC50 (Mu-type opioid receptor) 40.6 µM | EC50 [13] > 92.5 µM | EC50 [14] 56.8 µM

OCCCNc1nccc(-c2cc(Nc3cccc(Cl)c3)ncn2)n1
inactive: IC50 [17] > 80 µM
active: AC50 [15] 2.96 µM | AC50 [16] 5.08 µM | AC50 [7] 0.535 µM | IC50 (Jurkat) 0.32 µM | AC50 [18] 0.418 µM | EC50 [19] 3.8 µM | AC50 [20] 0.417 µM | AC50 [21] < 0.26 µM | EC50 [22] 5.3 µM | AC50 (Paired box protein Pax-8) 2.7 µM | EC50 [23] 1.86 µM | EC50 [24] 2.33 µM | AC50 [25] 2.71 µM | AC50 [26] 0.569 µM | AC50 [27] 2.61 µM | AC50 [28] 1.35 µM

C/C(=N\Nc1cc(N2CCOCC2)ncn1)c1ccccc1
active: AC50 (A-375 [29]) > 35 µM | AC50 (A-375 [11]) > 35 µM
